Data: patent US7256211B1, “8-azaprostaglandin derivatives and medical use thereof” (ONO Pharmaceutical Co., Ltd., priority 2003, dated 2007)

Molecular target: T1, EP4 receptor (Mus musculus, UniProt P32240)
T1 construct: expressed in transfected cells; host or cells: CHO cells (membrane fraction)
Experiment: Receptor-binding experiment using CHO cell membranes expressing prostanoid receptor sub-types (3H-PGE2 displacement)
Conditions: membrane fraction of CHO cells expressing murine EP4; 3H-PGE2 2.5 nM; Ki=IC50/(1+([C]/Kd))
Description: (i) Experiment for Receptor-Binding Using Cells which Express Prostanoid Receptor Sub-Types
According to the method of Sugimoto et al. (J. Biol. Chem., 267, 6463–6466 ([…])), CHO cells which expressed prostanoid receptor sub-types (murine EP1, EP2, EP3α, and EP4 respectively) were prepared and used as membrane authentic samples.
A reaction solution (200 μL) containing the prepared membrane fraction (0.5 mg/ml) and ^3H-PGE2 was incubated at room temperature for an hour. The reaction was terminated with ice cold buffer (3 mL), and the reaction mixture was suction filtrated under reduced pressure through a glass filter (GF/B), on which the binding ^3H-PGE2 was trapped, and the binding radioactivity was measured by means of a liquid scintillator.
The Kd value was obtained from the Scatchard plots (Ann. N.Y. Acad. Sci., 51, 660 (1949)). Non-specific binding was obtained as the binding in the presence of an excess amount (2.5 μM) of unlabelled PGE2. Measurement of the binding inhibition for ^3H-PGE2 with the compounds of the invention was performed by adding ^3H-PGE2 (2.5 nM) and a series of concentrations of the compounds of the invention. In this reaction, the following buffer was used in all cases. • Buffer: 10 mM potassium phosphate (pH6.0), 1 mM EDTA, 10 mM MgCl2 and 0.1M NaCl.
Dissociation constant Ki (μM) of each compounds was calculated from the following equation. […]

T1 sequence (P32240 whole entry): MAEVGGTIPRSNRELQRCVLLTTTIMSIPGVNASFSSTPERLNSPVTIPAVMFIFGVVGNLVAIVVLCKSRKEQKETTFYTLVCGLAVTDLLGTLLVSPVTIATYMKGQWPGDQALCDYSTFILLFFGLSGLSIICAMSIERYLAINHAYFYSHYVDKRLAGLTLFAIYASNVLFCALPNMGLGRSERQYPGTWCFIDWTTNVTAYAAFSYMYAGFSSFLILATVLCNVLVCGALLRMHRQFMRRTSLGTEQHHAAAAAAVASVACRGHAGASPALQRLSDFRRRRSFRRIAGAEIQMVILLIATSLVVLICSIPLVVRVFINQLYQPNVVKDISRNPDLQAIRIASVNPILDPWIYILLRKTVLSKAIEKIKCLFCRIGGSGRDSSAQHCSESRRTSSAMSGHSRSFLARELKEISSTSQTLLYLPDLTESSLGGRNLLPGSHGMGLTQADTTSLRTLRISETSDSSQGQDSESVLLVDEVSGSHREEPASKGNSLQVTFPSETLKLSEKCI

Cc1cc(C)cc(C[C@H](O)/C=C/[C@H]2CCC(=O)N2CCc2ccc(C(=O)O)cc2)c1 [Example 5, (15α,13E)-1,6-(1,4-interphenylene)-9-oxo-15-hydroxy-16-(3,5-dimethylphenyl)-2,3,4,5,17,18,19,20-octanol-8-azaprost-13-enoic acid]
Ki: 6.4 nM
